In general, MIC refers to the lowest concentration found to suppress growth. Usually melting point stands for the temperature of the solid-liquid transition.

These results are taken from patent publication US7183301B2, “Heterocyclic compounds having antibacterial activity: process for their preparation and pharmaceutical compositions containing them” (Dr. Reddy's Research Foundation, priority 2000, dated 2007).

≈ marks a conversion by molar mass, not a printed value. A value given as a limit tells only on which side of the number the result lay.

In one data set the test system is Staphylococcus aureus ATCC 33591 (DRCC 019, MRSA). Description: MIC by broth microdilution, S. aureus DRCC 019 (MRSA). The format is cell-based. Particulars: Mueller Hinton Broth, overnight 37° C., strain DRCC 019 (ATCC 33591), read-out: Antimicrobial Screening (MIC) Staphylococcus aureus 019 MRSA. Here is the method: (§1) Minimum Inhibiton Concentrations (MICs) were determined by broth microdilution technique as per the guidelines prescribed om the fifth edition of Approved Standards, NCCLS document M7-A5 Vol 20-No 2, 2000 Villinova, Pa.
(§2) Initial stock solution of the test compound was prepared in DMSO. Subsequent two fold dilutions were carried out in sterile Mueller Hinton Broth (Difco) (MHB).
(§3) Frozen cultures stocks were inoculated into 50 ml sterile MHB in 250 ml Erlyn Meyer flasks.
(§4) Composition of MHB is as follows:
(§5) Flasks were incubated for 4 to 5 h at 35° C. on a rotary shaker at 150 rpm. Inoculum was prepared by diluting the culture in sterile MHB to obtain a turbidity of 0.5 McFarland standard. This corresponds to 1–2×10^8 CFU/ml. The stock was further diluted in sterile broth to obtain 1–2×10^6 CFU/ml. 50 μl of the above diluted inoculum was added from 1–10 wells. The plates were incubated overnight at 37° C.
For `CC(=S)NC[C@H]1CN(c2cc(F)c(N3CCOC3=O)c(F)c2)C(=O)O1` [Example 76], the MIC is 2 µg/mL (≈ 5.39 µM).

In the case of `CCOC(=S)NC[C@H]1CN(c2ccc(N3CCOC3=O)c(F)c2)C(=O)O1` [Example 89], the minimal inhibitory concentration (MIC) amounted to 4 µg/mL (≈ 10.4 µM).

As to `COC(=S)NC[C@H]1CN(c2ccc(N3CC(=O)N(C)C3)c(F)c2)C(=O)O1` [Example 110], the MIC was 0.5 µg/mL (≈ 1.31 µM).

In the case of `CC(=O)NC[C@H]1CN(c2ccc(N3CCOC3=O)c(F)c2)C(=O)O1` [Example 40], the MIC was 8 µg/mL (≈ 23.7 µM).

The test system of the next data set is Staphylococcus aureus ATCC 49951 (DRCC 213, Smith S). As to the kind of experiment: MIC by broth microdilution, S. aureus DRCC 213 (Smith S). Type of data set: cell-based. The settings on record: ATCC49951, Mueller Hinton Broth, overnight 37° C., strain DRCC 213 (ATCC 49951), read-out: Antimicrobial Screening (MIC) Staphylococcus aureus 213 Smith S. Here is the method: as §1, §2, §3, §4, §5
(In general: Dilution methods test growth across graded concentrations, often in twofold steps.)
As to `CC(=S)NC[C@H]1CN(c2cc(F)c(N3CCOC3=O)c(F)c2)C(=O)O1` [Example 76], the minimum inhibitory concentration (MIC) was found to be 2 µg/mL (≈ 5.39 µM).

On to `CCOC(=S)NC[C@H]1CN(c2ccc(N3CCOC3=O)c(F)c2)C(=O)O1` [Example 89], for which the MIC is 4 µg/mL (≈ 10.4 µM).

For `COC(=S)NC[C@H]1CN(c2ccc(N3CC(=O)N(C)C3)c(F)c2)C(=O)O1` [Example 110], the MIC stood at 0.5 µg/mL (≈ 1.31 µM).

As for `CC(=O)NC[C@H]1CN(c2ccc(N3CCOC3=O)c(F)c2)C(=O)O1` [Example 40], the MIC came out at 4 µg/mL (≈ 11.9 µM).

In another data set the test system is Staphylococcus aureus ATCC 29213 (DRCC 035, S). As to the kind of experiment: MIC by broth microdilution, S. aureus DRCC 035 (S). Particulars: ATCC29213, Mueller Hinton Broth, overnight 37° C., strain DRCC 035 (ATCC 29213), read-out: Antimicrobial Screening (MIC) Staphylococcus aureus 035 S. Type of data set: cell-based. The procedure: as §1, §2, §3, §4, §5
Take `CC(=S)NC[C@H]1CN(c2cc(F)c(N3CCOC3=O)c(F)c2)C(=O)O1` [Example 76]: the MIC turned out to be 4 µg/mL (≈ 10.8 µM).

As for `CCOC(=S)NC[C@H]1CN(c2ccc(N3CCOC3=O)c(F)c2)C(=O)O1` [Example 89], the MIC turned out to be 4 µg/mL (≈ 10.4 µM).

Consider `COC(=S)NC[C@H]1CN(c2ccc(N3CC(=O)N(C)C3)c(F)c2)C(=O)O1` [Example 110], for which the MIC was determined as 0.5 µg/mL (≈ 1.31 µM).

Take `CC(=O)NC[C@H]1CN(c2ccc(N3CCOC3=O)c(F)c2)C(=O)O1` [Example 40]: the MIC is 8 µg/mL (≈ 23.7 µM).

The test system of the next data set is Enterococcus faecalis ATCC 29212 (DRCC 034, S). Description: MIC by broth microdilution, Enterococcus DRCC 034 (S). Type of data set: cell-based. The settings on record: ATCC29212, Mueller Hinton Broth, overnight 37° C., strain DRCC 034 (E. faecalis ATCC 29212), read-out: Antimicrobial Screening (MIC) Enterococcus sp 034 S. The procedure:
as §1, §2, §3, §4, §5
For the molecule `CC(=S)NC[C@H]1CN(c2cc(F)c(N3CCOC3=O)c(F)c2)C(=O)O1` [Example 76], the MIC turned out to be 4 µg/mL (≈ 10.8 µM).

For `CCOC(=S)NC[C@H]1CN(c2ccc(N3CCOC3=O)c(F)c2)C(=O)O1` [Example 89], the MIC came to 8 µg/mL (≈ 20.9 µM).

Take `COC(=S)NC[C@H]1CN(c2ccc(N3CC(=O)N(C)C3)c(F)c2)C(=O)O1` [Example 110]: the MIC worked out at 1 µg/mL (≈ 2.61 µM).

As for `CC(=O)NC[C@H]1CN(c2ccc(N3CCOC3=O)c(F)c2)C(=O)O1` [Example 40], the MIC was 16 µg/mL (≈ 47.4 µM).

The subject of the next data set is Enterococcus faecalis NCTC 12201 (DRCC 153, R). As to the kind of experiment: MIC by broth microdilution, Enterococcus DRCC 153 (R). Type of data set: cell-based. Particulars: NCTC12201, Mueller Hinton Broth, overnight 37° C., strain DRCC 153 (E. faecalis NCTC 12201), read-out: Antimicrobial Screening (MIC) Enterococcus sp 153 R. Here is the method:
as §1, §2, §3, §4, §5
In the case of `CC(=S)NC[C@H]1CN(c2cc(F)c(N3CCOC3=O)c(F)c2)C(=O)O1` [Example 76], the MIC was 4 µg/mL (≈ 10.8 µM).

On to `CCOC(=S)NC[C@H]1CN(c2ccc(N3CCOC3=O)c(F)c2)C(=O)O1` [Example 89], for which the MIC turned out to be 8 µg/mL (≈ 20.9 µM).

Take `COC(=S)NC[C@H]1CN(c2ccc(N3CC(=O)N(C)C3)c(F)c2)C(=O)O1` [Example 110]: the MIC was found to be 1 µg/mL (≈ 2.61 µM).

`CC(=O)NC[C@H]1CN(c2ccc(N3CCOC3=O)c(F)c2)C(=O)O1` [Example 40]: the MIC was determined as 8 µg/mL (≈ 23.7 µM).

Another data set has as its system Enterococcus faecium NCTC 12202 (DRCC 154, R). As to the kind of experiment: MIC by broth microdilution, Enterococcus DRCC 154 (R). Particulars: NCTC12202, Mueller Hinton Broth, overnight 37° C., strain DRCC 154 (E. faecium NCTC 12202), read-out: Antimicrobial Screening (MIC) Enterococcus sp 154 R. The format is cell-based. Here is the method:
as §1, §2, §3, §4, §5
In the case of `CC(=S)NC[C@H]1CN(c2cc(F)c(N3CCOC3=O)c(F)c2)C(=O)O1` [Example 76], the MIC amounted to 4 µg/mL (≈ 10.8 µM).

Take `CCOC(=S)NC[C@H]1CN(c2ccc(N3CCOC3=O)c(F)c2)C(=O)O1` [Example 89]: the MIC worked out at 8 µg/mL (≈ 20.9 µM).

In the case of `COC(=S)NC[C@H]1CN(c2ccc(N3CC(=O)N(C)C3)c(F)c2)C(=O)O1` [Example 110], the MIC stood at 1 µg/mL (≈ 2.61 µM).

For `CC(=O)NC[C@H]1CN(c2ccc(N3CCOC3=O)c(F)c2)C(=O)O1` [Example 40], the MIC stood at 8 µg/mL (≈ 23.7 µM).

The subject of the next data set is Escherichia coli ATCC 25922 (DRCC 018, S). Description: MIC by broth microdilution, E coli DRCC 018 (S). The format is cell-based. Particulars: ATCC25922, Mueller Hinton Broth, overnight 37° C., strain DRCC 018 (ATCC 25922), read-out: Antimicrobial Screening (MIC) E coli 18 S. The procedure: as §1, §2, §3, §4, §5
`CC(=S)NC[C@H]1CN(c2cc(F)c(N3CCOC3=O)c(F)c2)C(=O)O1` [Example 76]: the MIC is above 32 µg/mL.

For the molecule `CCOC(=S)NC[C@H]1CN(c2ccc(N3CCOC3=O)c(F)c2)C(=O)O1` [Example 89], the MIC is above 32 µg/mL.

`COC(=S)NC[C@H]1CN(c2ccc(N3CC(=O)N(C)C3)c(F)c2)C(=O)O1` [Example 110]: the MIC worked out at 32 µg/mL (≈ 83.7 µM).

For `CC(=O)NC[C@H]1CN(c2ccc(N3CCOC3=O)c(F)c2)C(=O)O1` [Example 40], the MIC was determined as 32 µg/mL (≈ 94.9 µM).

Tested on in another data set: not given
Experiment: not given
Conditions: not given
Take `COC(=S)NC[C@H]1CN(c2ccc(N3CC(=O)N(Cc4ccccc4)C3)c(F)c2)C(=O)O1` [Example 123]: the melting point was 192 °C.

With `COC(=S)NC[C@H]1CN(c2ccc(N3CCN(c4ccccc4)C3=O)c(F)c2)C(=O)O1` [Example 117], the melting point stood at 195 °C.

`COC(=S)NC[C@H]1CN(c2ccc(N3CC(=S)N(C)C3)c(F)c2)C(=O)O1` [Example 126]: the melting point is 223 °C.

The molecule `COC(=S)NC[C@H]1CN(c2ccc(N3CCOC3=S)c(F)c2)C(=O)O1` [Example 92] came in with a melting point of 197 °C.

For `COC(=S)NC[C@H]1CN(c2ccc(N3CCN(Cc4ccccc4)C3=O)c(F)c2)C(=O)O1` [Example 116], the melting point amounted to 174 °C.

On to `COC(=S)NC[C@H]1CN(c2ccc(N3CCN(Cc4ccccc4)C3=O)cc2)C(=O)O1` [Example 115], for which the melting point stood at 160 °C.

`CC(=S)NC[C@H]1CN(c2cc(F)c(N3CCOC3=O)c(F)c2)C(=O)O1` [Example 77] had a melting point of 168 °C.
